Experimental data from patent US4374040A, “Aminoalkylenephosphonic acids and salts thereof and their use in aqueous systems” (Buckman Laboratories, Inc., priority 1980, dated 1983).

What was measured:
[1] = Calcium Carbonate Antiprecipitation Tests; conditions: 18 hours, 25° C.
Description: To evaluate the effect of the aminoalkylenephosphonic acids of this invention on the precipitation of calcium carbonate, measured volumes of stock solution (prepared with demineralized water) of the phosphonic acids or their sodium salts were added to 100 ml. portions of a calcium chloride solution (0.2936 g. CaCl2.2H2 O per 100 ml. of solution). Then 100 ml. of a sodium bicarbonate solution (0.168 g. NaHCO3 per 100 ml. of solution) was added to each portion of calcium chloride solution. The test solutions were then agitated on a gyratory shaker table for 18 hours at a temperature of 25° C. At the end of this time, insoluble material was removed by filtration through a Millipore membrane filter, and the calcium ion concentration in the filtrate was determined with an atomic absorption spectrophotometer. […] The compounds tested were as follows:
A. Tetrahydro-N,N-bis(phosphonomethyl)-3-thiophenamine 1,1-dioxide (30 percent)
B. Thirty percent solution of the trisodium salt of A
D. Tetrahydro-N,N,N',N'-tetrakis(phosphonomethyl)-3,4-thiophenediamine 1,1-dioxide (30 percent)
E. 3-Hydrazinotetrahydro-N,N-bis(phosphonomethyl)thiophene 1,1-dioxide (30 percent)
F. Tetrahydro-N-(2-hydroxyethyl)-N-(phosphonomethyl)-3-thiophenamine 1,1-dioxide (30 percent)

[2] = Calcium Sulfate Antiprecipitation Tests; conditions: pH 7, 18 hours, 50° C.
Description: Inhibition of calcium sulfate precipitation by the aminoalkylenephosphonic acids of this invention was evaluated by adding the desired volumes of stock solutions of the phosphonic acids or their sodium salts (prepared with demineralized water) to 10-ml. aliquots of a calcium chloride solution containing 162.9 g. of CaCl2 per liter. The volume of each was made up to 175 ml. with demineralized water, and the pH was adjusted to 7.0 with dilute NaOH or HCl. A 25-ml. aliquot of a sodium sulfate solution (83.84 g. Na2 SO4 per liter) was then added to each. The test solutions were maintained for 18 hours at a temperature of 50° C. A portion of each was filtered while still hot to remove insoluble materials and the filtrate was analyzed for calcium by means of an atomic absorption instrument. The percent inhibition was calculated and the results are included in Table 2.

[3] = Barium Sulfate Antiprecipitation Tests; conditions: pH 7; for Percent inhibition of barium sulfate precipitation: 18 hours, 25° C.
Description: To evaluate the effect of the aminoalkylenephosphonic acids of this invention in inhibiting the precipitation of barium sulfate, the desire volumes of stock solutions of the phosphonic acids or their sodium salts (prepared with demineralized water) were added to 10-ml. aliquots of a barium chloride solution containing 5.35 g. BaCl2.H2 O per liter. The volume of each was made up to 175 ml. with demineralized water, and the pH was adjusted to 7.0 with dilute NaOH or HCl. A 25-ml. aliquot of a sodium sulfate solution (1.24 g. Na2 SO4 per liter) was then added to each. The test solutions were agitated on a gyratory shaker table for 18 hours at 25° C. At the end of this time, insoluble material was removed by filtration and the barium ion concentration was determined with an atomic absorption unit. The percent inhibition was calulated and the results are included in Table 3. Compound C was described in Example 15 and Compound H was described in Example 16. Compound I was an aqueous solution containing 22.5 percent of the trisodium salt of tetrahydro-N,N-bis(phosphonomethyl)-3-thiophenamine 1,1-dioxide and 7.5 percent of a poly(acrylic acid) having a molecular weight of about 4000. Compound J was an aqueous solution containing 7.5 percent of tetrahydro-N,N-bis(phosphononmethyl)-3-thiophenamine 1,1-dioxide and 22.5 percent of a poly(acrylic acid) having a molecular weight of about 4000. Since the percent inhibition results were lower that those obtainined in Examples 15 and 16, a well known scale inhibitor was included in this test for comparison.

## O=P(O)(O)CN(CP(=O)(O)O)C1CCS(=O)(=O)C1 (centres unmarked) [A, Tetrahydro-N,N-bis(phosphonomethyl)-3-thiophenamine 1,1-dioxide]
[1]; pH 8.5, 1 parts per million
  percent inhibition of calcium carbonate precipitation: 83%
[1]; pH 8.5, 3 parts per million
  percent inhibition of calcium carbonate precipitation: 84%
[1]; pH 8.5, 5 parts per million
  percent inhibition of calcium carbonate precipitation: 78%
[1]; pH 8.5, 10 parts per million
  percent inhibition of calcium carbonate precipitation: 85%
[1]; pH 8.5, 25 parts per million
  percent inhibition of calcium carbonate precipitation: 73%
[1]; pH 8.5, 50 parts per million
  percent inhibition of calcium carbonate precipitation: 71%

## O=P(O)(O)CN(CP(=O)(O)O)C1CCS(=O)(=O)C1 (centres unmarked) [B]
[1]; pH 8.5, 1 parts per million
  percent inhibition of calcium carbonate precipitation: 92%
[1]; pH 8.5, 3 parts per million
  percent inhibition of calcium carbonate precipitation: 87%
[1]; pH 8.5, 5 parts per million
  percent inhibition of calcium carbonate precipitation: 92%
[1]; pH 8.5, 10 parts per million
  percent inhibition of calcium carbonate precipitation: 91%
[1]; pH 8.5, 25 parts per million
  percent inhibition of calcium carbonate precipitation: 93%
[1]; pH 8.5, 50 parts per million
  percent inhibition of calcium carbonate precipitation: 94%
[1]; pH 9.0, 1 parts per million
  percent inhibition of calcium carbonate precipitation: 9%
[1]; pH 9.0, 3 parts per million
  percent inhibition of calcium carbonate precipitation: 11%
[1]; pH 9.0, 5 parts per million
  percent inhibition of calcium carbonate precipitation: 89%
[1]; pH 9.0, 10 parts per million
  percent inhibition of calcium carbonate precipitation: 85%
[1]; pH 9.0, 25 parts per million
  percent inhibition of calcium carbonate precipitation: 16%
[1]; pH 9.0, 50 parts per million
  percent inhibition of calcium carbonate precipitation: 86%
[2]; 1 parts per million
  Percent inhibition of calcium sulfate precipitation: 40%
[2]; 3 parts per million
  Percent inhibition of calcium sulfate precipitation: 52%
[2]; 5 parts per million
  Percent inhibition of calcium sulfate precipitation: 55%
[2]; 10 parts per million
  Percent inhibition of calcium sulfate precipitation: 78%
[2]; 25 parts per million
  Percent inhibition of calcium sulfate precipitation: 95%
[2]; 50 parts per million
  Percent inhibition of calcium sulfate precipitation: 100%

## O=P(O)(O)CN(CP(=O)(O)O)CP(=O)(O)O [Compound K, nitrilotris(methylenephosphonic acid)]
[3]; 5 parts per million
  Percent inhibition of barium sulfate precipitation: 5%
[3]; 10 parts per million
  Percent inhibition of barium sulfate precipitation: 5%
[3]; 25 parts per million
  Percent inhibition of barium sulfate precipitation: 6%
[3]; 50 parts per million
  Percent inhibition of barium sulfate precipitation: 12%
[3]; in words
  effectiveness in inhibiting barium sulfate precipitation, compared with the combinations: less than that of the combinations containing tetrahydro-N,N-bis(phosphonomethyl)-3-thiophenamine 1,1-dioxide

## O=P(O)(O)CN(CP(=O)(O)O)C1CS(=O)(=O)CC1N(CP(=O)(O)O)CP(=O)(O)O (centres unmarked) [D, Tetrahydro-N,N,N',N'-tetrakis(phosphonomethyl)-3,4-thiophenediamine 1,1-dioxide]
[1]; pH 8.5, 1 parts per million
  percent inhibition of calcium carbonate precipitation: 78%
[1]; pH 8.5, 3 parts per million
  percent inhibition of calcium carbonate precipitation: 73%
[1]; pH 8.5, 5 parts per million
  percent inhibition of calcium carbonate precipitation: 73%
[1]; pH 8.5, 10 parts per million
  percent inhibition of calcium carbonate precipitation: 71%
[1]; pH 8.5, 25 parts per million
  percent inhibition of calcium carbonate precipitation: 70%
[1]; pH 8.5, 50 parts per million
  percent inhibition of calcium carbonate precipitation: 70%

## O=P(O)(O)CN(CP(=O)(O)O)NC1CCS(=O)(=O)C1 (centres unmarked) [E, 3-Hydrazinotetrahydro-N,N-bis(phosphonomethyl)thiophene 1,1-dioxide]
[1]; pH 8.5, 1 parts per million
  percent inhibition of calcium carbonate precipitation: 82%
[1]; pH 8.5, 3 parts per million
  percent inhibition of calcium carbonate precipitation: 82%
[1]; pH 8.5, 5 parts per million
  percent inhibition of calcium carbonate precipitation: 77%
[1]; pH 8.5, 10 parts per million
  percent inhibition of calcium carbonate precipitation: 79%
[1]; pH 8.5, 25 parts per million
  percent inhibition of calcium carbonate precipitation: 100%
[1]; pH 8.5, 50 parts per million
  percent inhibition of calcium carbonate precipitation: 91%
[1]; pH 9.0, 1 parts per million
  percent inhibition of calcium carbonate precipitation: 78%
[1]; pH 9.0, 3 parts per million
  percent inhibition of calcium carbonate precipitation: 79%
[1]; pH 9.0, 5 parts per million
  percent inhibition of calcium carbonate precipitation: 79%
[1]; pH 9.0, 10 parts per million
  percent inhibition of calcium carbonate precipitation: 79%
[1]; pH 9.0, 25 parts per million
  percent inhibition of calcium carbonate precipitation: 70%
[1]; pH 9.0, 50 parts per million
  percent inhibition of calcium carbonate precipitation: 86%
[2]; 1 parts per million
  Percent inhibition of calcium sulfate precipitation: 38%
[2]; 3 parts per million
  Percent inhibition of calcium sulfate precipitation: 38%
[2]; 5 parts per million
  Percent inhibition of calcium sulfate precipitation: 38%
[2]; 10 parts per million
  Percent inhibition of calcium sulfate precipitation: 38%
[2]; 25 parts per million
  Percent inhibition of calcium sulfate precipitation: 40%
[2]; 50 parts per million
  Percent inhibition of calcium sulfate precipitation: 45%

## O=P(O)(O)CN(CCO)C1CCS(=O)(=O)C1 (centres unmarked) [F, Tetrahydro-N-(2-hydroxyethyl)-N-(phosphonomethyl)-3-thiophenamine 1,1-dioxide]
[1]; pH 8.5, 1 parts per million
  percent inhibition of calcium carbonate precipitation: 27%
[1]; pH 8.5, 3 parts per million
  percent inhibition of calcium carbonate precipitation: 25%
[1]; pH 8.5, 5 parts per million
  percent inhibition of calcium carbonate precipitation: 27%
[1]; pH 8.5, 10 parts per million
  percent inhibition of calcium carbonate precipitation: 25%
[1]; pH 8.5, 25 parts per million
  percent inhibition of calcium carbonate precipitation: 38%
[1]; pH 8.5, 50 parts per million
  percent inhibition of calcium carbonate precipitation: 32%
[2]; 1 parts per million
  Percent inhibition of calcium sulfate precipitation: 41%
[2]; 3 parts per million
  Percent inhibition of calcium sulfate precipitation: 38%
[2]; 5 parts per million
  Percent inhibition of calcium sulfate precipitation: 39%
[2]; 10 parts per million
  Percent inhibition of calcium sulfate precipitation: 43%
[2]; 25 parts per million
  Percent inhibition of calcium sulfate precipitation: 61%
[2]; 50 parts per million
  Percent inhibition of calcium sulfate precipitation: 88%
